The values that follow come from patent US20110015226A1, “Treatment of Energy Utilization Disease” (SUMMIT CORPORATION PLC, priority 2008, published 2011).

Common to all, as to format: biochemical
Common to all, as to details: compounds tested at 0.8 mM

One experiment addresses T1, α-D-glucosidase (Yeast) (Saccharomyces cerevisiae, UniProt P53341).
T1 construct: purchased Sigma
Briefly: Glycosidase inhibition: α-D-glucosidase (Yeast). The text has this:
(§1) The results tabulated below were obtained using commercially available glycosidases and p-nitrophenyl-substrates using standard methods described for example by Watson et al (1997) Phytochemistry 46 255-259. All enzymes and substrates were bought from Sigma. Enzyme and substrate solutions were made using sodium phosphate buffers at the pH optima values. The enzymes used were α-D-glucosidase Saccharomyces cerevisiae, Bacillus stearothermophilus, Oryzae sativa), β-D-glucosidase (Almond), α-D-mannosidase (Jack bean), α-D-galactosidase (Green coffee beans), β-D-galactosidase (Bovine liver), α-L-fucosidase (Bovine kidney), N-acetyl-β-D-glucosaminidase (Bovine kidney, Jack bean, Aspergillus oryzae), Naringinase (Penicillium decumbens) and amyloglucosidase (Aspergillus niger). All enzymes were used with the appropriate p-nitrophenyl substrates (5 mM). Amyloglucosidase activity was measured using amylopectin (0.1%) (Merck) mixed with sodium phosphate buffer, pH 4.5 in a glass bottle, and healed in a boiling water bath for 20 minutes to dissolve with released glucose measured using ‘Trinder’ glucose detection solution (Sigma).
(§2) All enzymes and para-nitrophenyl substrates were purchased from Sigma, with the exception of beta-mannosidase which came from Megazyme. Enzymes were assayed at 27° C. in 0.1M citric acid/0.2M disodium hydrogen phosphate buffers at the optimum pH for the enzyme. The incubation mixture consisted of 10 μl enzyme solution, 10 μl of 1 mg/ml aqueous solution of extract and 50 μl of the appropriate 5 mM para-nitrophenyl substrate made up in buffer at the optimum pH for the enzyme. The reactions were stopped by addition of 70 μl 0.4M glycine (pH 10.4) during the exponential phase of the reaction, which had been determined at the beginning using uninhibited assays in which water replaced inhibitor. Final absorbances were read at 405 nm using a Versamax microplate reader (Molecular Devices). Assays were carried out in triplicate, and the values given are means of the three replicates per assay. (See Watson, A. A., Nash, R. J., Wormald, M. R., Harvey, D. J., Dealler, S., Lees, E., Asano, N., Kizu, H., Kato, A., Griffiths, R. C., Cairns, A. J. and Fleet, G. W. J. (1997). Glycosidase-inhibiting pyrrolidine alkaloids from Hyacinthoides non-scripta. Phytochemistry 46 (2): 255-259.)

Experiment [1] concerns the target α-D-glucosidase (Bacillus) (Geobacillus stearothermophilus, UniProt A0ACH1E9U3). The experiment in a line: Glycosidase inhibition: α-D-glucosidase (Bacillus).
Description: as §1, §2

The next experiment has as its target T2, α-D-glucosidase (Rice) (Oryza sativa subsp. japonica, UniProt Q653V7).
T2 construct: purchased Sigma
Briefly: Glycosidase inhibition: α-D-glucosidase (Rice).

The subject of the next experiment is β-D-glucosidase (Almond). The experiment in a line: Glycosidase inhibition: β-D-glucosidase (Almond).
Description: as §1
as §2, with “(See Watson, A. A., Nash, R. J., Wormald, M. R., Harvey, D. J., Dealler, S., Lees, E., Asano, N., Kizu, H., Kato, A., Griffiths, R. C., Cairns, A. J. and Fleet, G. W. J. (1997). Glycosidase-inhibiting pyrrolidine alkaloids from Hyacinthoides non-scripta. Phytochemistry 46 (2): 255-259.)” left out

Experiment [2] deals with T3, α-D-galactosidase Green coffee bean (Coffea arabica, UniProt Q42656).
T3 construct: α-D-galactosidase (Green coffee beans); purchased Sigma; host or cells: green coffee beans
Briefly: Glycosidase inhibition: α-D-galactosidase Green coffee bean.
Description: as §1, §2

In experiment [3] the test system is β-D-galactosidase Bovine liver. The experiment in a line: Glycosidase inhibition: β-D-galactosidase Bovine liver.
Description: as §1, §2

In experiment [4] the test system is β-D-mannosidase Cellullomonas fimi. The experiment in a line: Glycosidase inhibition: β-D-mannosidase Cellullomonas fimi. As to the method: as §2
Experiment [5] has as its system Naringinase Penicillium decumbens. The experiment in a line: Glycosidase inhibition: Naringinase Penicillium decumbens.
Description: as §1
as §2, with “(See Watson, A. A., Nash, R. J., Wormald, M. R., Harvey, D. J., Dealler, S., Lees, E., Asano, N., Kizu, H., Kato, A., Griffiths, R. C., Cairns, A. J. and Fleet, G. W. J. (1997). Glycosidase-inhibiting pyrrolidine alkaloids from Hyacinthoides non-scripta. Phytochemistry 46 (2): 255-259.)” left out

Experiment [6] deals with N-acetyl-β-D-glucosaminidase (Bovine kidney). Briefly: Glycosidase inhibition: N-acetyl-β-D-glucosaminidase (Bovine kidney).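 Note: enzyme activity followed by cleavage of the matching p-nitrophenyl glycoside (5 mM) in phosphate buffer set to the enzyme's optimal pH.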
Experiment [7] relates to N-acetyl-β-D-glucosaminidase (Jack bean). Briefly: Glycosidase inhibition: N-acetyl-β-D-glucosaminidase (Jack bean).
Description: as §1
as §2, with “(See Watson, A. A., Nash, R. J., Wormald, M. R., Harvey, D. J., Dealler, S., Lees, E., Asano, N., Kizu, H., Kato, A., Griffiths, R. C., Cairns, A. J. and Fleet, G. W. J. (1997). Glycosidase-inhibiting pyrrolidine alkaloids from Hyacinthoides non-scripta. Phytochemistry 46 (2): 255-259.)” left out

Experiment [8] concerns the target T4, N-acetyl-β-D-glucosaminidase (A. oryzae) (Aspergillus oryzae, UniProt Q8J2T0).
T4 construct: purchased Sigma
Briefly: Glycosidase inhibition: N-acetyl-β-D-glucosaminidase (A. oryzae).
Description: as §1, §2

The target in experiment [9] is T5, Amyloglucosidase Aspergillus niger (Aspergillus niger, UniProt P69328).
T5 construct: purchased Sigma
The experiment in a line: Glycosidase inhibition: Amyloglucosidase Aspergillus niger.
Description: as §1, §2

For experiment [10], the target named is T6, β-Glucuronidase Bovine liver (Bos taurus, UniProt A3KMY8).
T6 construct: The assay involved the use of Bovine liver β-glucuronidase; purchased Sigma; host or cells: bovine liver
T6 sequence (A3KMY8 1-652): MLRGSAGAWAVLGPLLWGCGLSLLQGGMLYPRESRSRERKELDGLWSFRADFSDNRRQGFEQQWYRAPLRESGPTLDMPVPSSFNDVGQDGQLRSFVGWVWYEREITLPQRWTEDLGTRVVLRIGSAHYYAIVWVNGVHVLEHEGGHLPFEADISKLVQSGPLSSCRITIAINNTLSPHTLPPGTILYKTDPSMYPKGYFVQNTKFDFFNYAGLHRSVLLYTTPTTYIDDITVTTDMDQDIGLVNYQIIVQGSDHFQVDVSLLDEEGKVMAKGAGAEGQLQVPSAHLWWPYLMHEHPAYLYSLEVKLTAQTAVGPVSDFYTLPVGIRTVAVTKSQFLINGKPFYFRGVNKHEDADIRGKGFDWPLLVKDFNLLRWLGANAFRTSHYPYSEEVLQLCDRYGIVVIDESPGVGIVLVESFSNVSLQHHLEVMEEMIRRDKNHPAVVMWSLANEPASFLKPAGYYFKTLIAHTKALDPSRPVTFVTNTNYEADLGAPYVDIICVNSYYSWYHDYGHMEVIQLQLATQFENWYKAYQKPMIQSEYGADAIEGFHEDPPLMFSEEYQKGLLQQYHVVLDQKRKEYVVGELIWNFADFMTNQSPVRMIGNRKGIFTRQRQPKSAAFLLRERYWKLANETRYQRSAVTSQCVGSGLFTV
The experiment in a line: Glycosidase inhibition: β-Glucuronidase Bovine liver.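 Note: bovine liver β-glucuronidase acting on p-nitrophenyl β-D-glucuronide substrate in citric acid/disodium hydrogen phosphate buffer, pH 5.0, 27 °C, mean of triplicate runs.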

In general, inhibition refers to the percentage by which the read-out fell short of the control. Higher therefore signals strong suppression.

T4 sequence (Q8J2T0 97-600): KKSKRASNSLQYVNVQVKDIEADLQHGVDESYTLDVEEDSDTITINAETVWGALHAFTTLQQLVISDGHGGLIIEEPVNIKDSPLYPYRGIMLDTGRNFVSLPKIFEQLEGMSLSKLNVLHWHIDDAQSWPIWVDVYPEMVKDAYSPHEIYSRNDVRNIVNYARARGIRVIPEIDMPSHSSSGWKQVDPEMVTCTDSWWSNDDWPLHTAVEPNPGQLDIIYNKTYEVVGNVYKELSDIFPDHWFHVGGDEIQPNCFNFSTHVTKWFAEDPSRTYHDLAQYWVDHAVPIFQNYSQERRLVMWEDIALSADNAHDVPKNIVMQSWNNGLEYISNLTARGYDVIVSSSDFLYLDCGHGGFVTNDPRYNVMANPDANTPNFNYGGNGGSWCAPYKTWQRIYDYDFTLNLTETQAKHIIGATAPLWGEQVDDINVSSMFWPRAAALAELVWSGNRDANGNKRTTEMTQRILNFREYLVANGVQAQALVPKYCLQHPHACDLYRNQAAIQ
T2 sequence (Q653V7 34-885): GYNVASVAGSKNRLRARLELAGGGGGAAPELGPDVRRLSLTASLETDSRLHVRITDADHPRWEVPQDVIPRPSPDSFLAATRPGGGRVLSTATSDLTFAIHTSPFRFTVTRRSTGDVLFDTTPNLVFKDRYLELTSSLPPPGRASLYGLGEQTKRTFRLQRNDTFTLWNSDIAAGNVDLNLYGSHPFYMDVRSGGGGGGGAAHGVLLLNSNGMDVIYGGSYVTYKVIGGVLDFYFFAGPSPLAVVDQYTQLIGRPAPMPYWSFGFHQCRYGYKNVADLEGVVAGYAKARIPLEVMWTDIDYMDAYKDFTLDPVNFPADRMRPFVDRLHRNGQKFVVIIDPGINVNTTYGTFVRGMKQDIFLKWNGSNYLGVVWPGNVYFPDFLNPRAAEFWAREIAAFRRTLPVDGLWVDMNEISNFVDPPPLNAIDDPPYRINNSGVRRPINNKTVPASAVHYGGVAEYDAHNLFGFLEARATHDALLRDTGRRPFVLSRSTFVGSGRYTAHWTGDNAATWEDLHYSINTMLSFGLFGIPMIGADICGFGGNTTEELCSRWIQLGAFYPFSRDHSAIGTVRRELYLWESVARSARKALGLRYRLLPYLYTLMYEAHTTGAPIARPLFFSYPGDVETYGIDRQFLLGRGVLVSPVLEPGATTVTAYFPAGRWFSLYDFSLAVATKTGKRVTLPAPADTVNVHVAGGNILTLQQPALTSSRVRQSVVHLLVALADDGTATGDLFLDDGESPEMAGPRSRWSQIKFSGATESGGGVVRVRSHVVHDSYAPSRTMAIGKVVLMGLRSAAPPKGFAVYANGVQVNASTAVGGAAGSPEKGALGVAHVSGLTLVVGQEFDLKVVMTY
α-D-glucosidase (Bacillus), sequence (A0ACH1E9U3 entry or part of it): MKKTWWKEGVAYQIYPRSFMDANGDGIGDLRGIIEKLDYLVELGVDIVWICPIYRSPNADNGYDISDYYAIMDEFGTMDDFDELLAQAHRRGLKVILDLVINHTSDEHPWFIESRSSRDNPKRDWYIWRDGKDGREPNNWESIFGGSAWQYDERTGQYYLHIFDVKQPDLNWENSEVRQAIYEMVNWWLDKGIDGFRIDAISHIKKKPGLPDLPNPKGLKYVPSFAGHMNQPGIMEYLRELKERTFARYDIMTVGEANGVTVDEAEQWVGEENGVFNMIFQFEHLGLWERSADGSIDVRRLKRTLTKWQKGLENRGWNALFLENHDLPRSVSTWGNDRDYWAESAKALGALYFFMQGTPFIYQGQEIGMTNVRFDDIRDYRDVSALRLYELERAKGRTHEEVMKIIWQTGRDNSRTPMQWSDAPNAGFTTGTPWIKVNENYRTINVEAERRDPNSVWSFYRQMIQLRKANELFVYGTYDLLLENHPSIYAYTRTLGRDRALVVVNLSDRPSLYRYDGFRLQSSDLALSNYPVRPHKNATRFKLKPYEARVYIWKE
T3 sequence (Q42656 16-378): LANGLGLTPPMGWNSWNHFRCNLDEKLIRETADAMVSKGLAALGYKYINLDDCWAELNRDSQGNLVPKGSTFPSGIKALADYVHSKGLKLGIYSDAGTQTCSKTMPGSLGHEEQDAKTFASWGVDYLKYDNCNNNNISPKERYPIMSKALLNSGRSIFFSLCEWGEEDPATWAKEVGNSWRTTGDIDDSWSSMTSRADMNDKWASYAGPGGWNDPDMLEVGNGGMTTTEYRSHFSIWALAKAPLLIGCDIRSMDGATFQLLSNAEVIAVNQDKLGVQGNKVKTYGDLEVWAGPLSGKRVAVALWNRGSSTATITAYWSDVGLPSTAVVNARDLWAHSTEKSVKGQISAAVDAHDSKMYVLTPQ
T1 sequence (P53341 whole entry): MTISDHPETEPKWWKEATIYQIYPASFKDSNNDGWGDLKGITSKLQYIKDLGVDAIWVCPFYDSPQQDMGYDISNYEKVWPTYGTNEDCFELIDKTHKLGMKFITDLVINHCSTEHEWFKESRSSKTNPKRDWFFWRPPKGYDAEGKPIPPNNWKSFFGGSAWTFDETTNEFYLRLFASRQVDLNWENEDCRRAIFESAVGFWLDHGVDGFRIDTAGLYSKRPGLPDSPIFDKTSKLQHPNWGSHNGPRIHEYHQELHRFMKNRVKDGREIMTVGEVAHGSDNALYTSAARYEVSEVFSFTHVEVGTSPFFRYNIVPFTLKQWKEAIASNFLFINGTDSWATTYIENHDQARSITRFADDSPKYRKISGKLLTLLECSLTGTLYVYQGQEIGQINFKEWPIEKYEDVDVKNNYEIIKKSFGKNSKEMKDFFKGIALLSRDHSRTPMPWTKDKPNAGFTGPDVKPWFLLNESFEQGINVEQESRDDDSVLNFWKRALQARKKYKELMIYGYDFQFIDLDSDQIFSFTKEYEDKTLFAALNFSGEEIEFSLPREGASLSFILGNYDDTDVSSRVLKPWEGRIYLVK
T5 sequence (P69328 25-640): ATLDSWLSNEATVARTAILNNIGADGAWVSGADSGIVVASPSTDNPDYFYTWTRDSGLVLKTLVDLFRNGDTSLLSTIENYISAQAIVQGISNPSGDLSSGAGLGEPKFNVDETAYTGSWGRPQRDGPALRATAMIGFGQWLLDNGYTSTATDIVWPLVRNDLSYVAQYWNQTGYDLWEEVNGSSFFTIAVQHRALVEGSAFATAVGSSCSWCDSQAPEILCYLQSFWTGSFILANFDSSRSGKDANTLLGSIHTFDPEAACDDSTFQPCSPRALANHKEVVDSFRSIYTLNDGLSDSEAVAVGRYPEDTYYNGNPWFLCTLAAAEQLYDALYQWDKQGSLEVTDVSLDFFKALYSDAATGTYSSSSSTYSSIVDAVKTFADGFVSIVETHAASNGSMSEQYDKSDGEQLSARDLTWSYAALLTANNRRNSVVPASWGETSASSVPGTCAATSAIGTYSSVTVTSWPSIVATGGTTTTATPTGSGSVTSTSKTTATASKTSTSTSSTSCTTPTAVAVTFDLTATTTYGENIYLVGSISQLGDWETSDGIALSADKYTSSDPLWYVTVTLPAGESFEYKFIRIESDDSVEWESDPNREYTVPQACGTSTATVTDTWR

Regarding `OCCN1C[C@H](O)[C@@H](O)[C@H](O)[C@H]1CO` [Miglitol, reference compound], the inhibition at 800 µM is under 5% against α-D-glucosidase (Yeast); 83% in experiment [1]; 100% against α-D-glucosidase (Rice); 19% in experiment [2]; under 5% in experiment [8]; 78% in experiment [9]. The inhibition at 800 µM in [10] was under 5%. Also, in the experiment with β-D-glucosidase (Almond), the “% inhibition, β-D-glucosidase (Almond)” value was 99%. In addition, the “% inhibition, β-D-galactosidase Bovine liver” value in experiment [3] is recorded as 87%. Besides, the “% inhibition, β-D-mannosidase Cellullomonas fimi” value in experiment [4] is “NI (NI = no inhibition)”. Besides, the “% inhibition, Naringinase Penicillium decumbens” value in experiment [5] was 26%. In [6], the “% inhibition, N-acetyl-β-D-glucosaminidase (Bovine kidney)” value was “NI (NI = no inhibition)”. For the same compound, the “% inhibition, N-acetyl-β-D-glucosaminidase (Jack bean)” value in [7] is given as “NI (NI = no inhibition)”.
